These results are taken from ChEMBL document CHEMBL1201862, “PubChem BioAssay data set” (2004).

Test systems include HOP-92; ACHN; CCRF-CEM; SK-MEL-5; SNB-75; OVCAR-5; LOX IMVI; SNB-19; PC-3; COLO 205; SF-295; A549; SN12C; A498; NCI-H226; RPMI-8226; HCC 2998; MCF7; SR.
Holding throughout (test): NCI anticancer screen, dose series, 48 h

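Compound exposure: 48 hours, 5 concentrations, 96-well plates. The concentration for 50% growth inhibition is given as GI50.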 Activity calls are given as the source filed them. Cut-off read from the data, not from the text of the source: active = GI50 up to about 1.1 µM and inactive = higher. Bounds are passed on as bounds.

Consider `Cc1cc(-c2ccc(C(=O)C(Cl)(Cl)Cl)[nH]2)on1`, for which the GI50 with HOP-92 was 51.5 µM (inactive); with ACHN, 27.9 µM (inactive); in the test with CCRF-CEM, 27.2 µM (inactive); with SK-MEL-5, 32.8 µM (inactive); in the test with SNB-75, 31.3 µM (inactive); in the test with OVCAR-5, 22.6 µM (inactive). In addition, the GI50 in the test on LOX IMVI was 24.9 µM (inactive); in the test with SNB-19 it was 40.8 µM (inactive); in the test on PC-3, 29.9 µM (inactive); in the test with COLO 205 it was 86.7 µM (inactive); in the test on SF-295, 33.3 µM (inactive); in the test on A549 it was 33.5 µM (inactive). The GI50 in the test with SN12C was 16.4 µM (inactive); in the test with A498, 41.3 µM (inactive); with NCI-H226, 22.4 µM (inactive); in the test on RPMI-8226, 8.51 µM (inactive).

With `COc1cc([C@@H]2c3cc4c(cc3[C@@H](c3c(O)cc(O)c5c3O[C@H](c3ccc(O)c(O)c3)[C@H](OC(=O)c3cc(O)c(O)c(O)c3)C5)[C@H]3COC(=O)[C@H]23)OCO4)cc(OC)c1O`, the GI50 in the test with HOP-92 is 58.2 µM (inactive); in the test on ACHN, 53.7 µM (inactive); in the test on HCC 2998 it was 33.8 µM (inactive); in the test with CCRF-CEM it was 24.4 µM (inactive); in the test with SK-MEL-5 it was 25.8 µM (inactive); with OVCAR-5, 39.4 µM (inactive). For the same compound, the GI50 in the test with LOX IMVI is 29.2 µM (inactive); in the test on SNB-19, 30.1 µM (inactive); with PC-3 it was 42.8 µM (inactive); in the test on COLO 205, 28.7 µM (inactive); in the test on MCF7, 42 µM (inactive); in the test on SF-295, 39.3 µM (inactive). Moreover, the GI50 was 29.4 µM (inactive) with A549, 22.3 µM (inactive) with SN12C, 74.5 µM (inactive) in the test with A498 and 26.6 µM (inactive) in the test with RPMI-8226.

In the case of `C=CCNC(NCC=C)=C(C(Cl)=C(Cl)Cl)[N+](=O)[O-]`, the GI50 is 31.8 µM (inactive) in the test on ACHN; > 100 µM (inactive) in the test with HCC 2998; 26.5 µM (inactive) in the test with CCRF-CEM; 89.1 µM (inactive) with SNB-75; > 100 µM (inactive) in the test with OVCAR-5; > 100 µM (inactive) in the test with SNB-19. The GI50 with PC-3 was 51.2 µM (inactive); in the test with COLO 205, 19.7 µM (inactive); with MCF7 it was 35.9 µM (inactive); with SF-295 it was > 100 µM (inactive); in the test on A549 it was > 100 µM (inactive); with SN12C it was 59.2 µM (inactive). The GI50 in the test with A498 was > 100 µM (inactive); in the test on NCI-H226, > 100 µM (inactive); with RPMI-8226, 49.1 µM (inactive).

`CC1=[N+]([O-])C(C)(C)N(N=O)C1(C)C`: the GI50 in the test on HOP-92, in the test with ACHN, with HCC 2998, with CCRF-CEM, in the test on OVCAR-5 and in the test on SNB-19 was > 10 µM (inactive) in each case. Also, the GI50 in the test on PC-3, with COLO 205, in the test with MCF7, with SF-295, in the test with A549 and in the test with SN12C was > 10 µM (inactive) in each case. For the same compound, the GI50 in the test with NCI-H226 and in the test on RPMI-8226 was > 10 µM (inactive) in each case.

As to `O=Nc1c(-c2c(O)[nH]c3ccc(I)cc23)[nH]c2ccccc12`, the GI50 in the test on HOP-92 was > 20.2 µM (inactive); with ACHN it was 2.53 µM (inactive); with HCC 2998, 2.31 µM (inactive); in the test with CCRF-CEM, 2.08 µM (inactive); in the test with SK-MEL-5, 4.12 µM (inactive); with SNB-75 it was 5.33 µM (inactive). Moreover, the GI50 in the test with OVCAR-5 was 3.25 µM (inactive); in the test on LOX IMVI, 2.45 µM (inactive); in the test on SNB-19 it was > 29.7 µM (inactive); with PC-3, 3.37 µM (inactive); in the test with COLO 205, 4.26 µM (inactive); in the test on MCF7, 2.41 µM (inactive). Also, the GI50 in the test with SF-295 is 6.28 µM (inactive); with A549, 3.27 µM (inactive); in the test on SN12C, 3.72 µM (inactive); in the test with RPMI-8226 it was 1.88 µM (inactive).

Consider `CCCCc1ccc(Nc2nc(N)c3ncn(COCCO)c3n2)cc1`, for which the GI50 in the test with HOP-92 is 18.2 µM (inactive); in the test on ACHN, 18 µM (inactive); in the test on HCC 2998, 27.2 µM (inactive); in the test with CCRF-CEM it was 26.4 µM (inactive); with SR, 18 µM (inactive); with SK-MEL-5, 18 µM (inactive). Also, the GI50 with SNB-75 was 32.6 µM (inactive); with OVCAR-5, 38.8 µM (inactive); in the test on LOX IMVI it was 18.9 µM (inactive); in the test with SNB-19, 48.9 µM (inactive); with COLO 205 it was 17.2 µM (inactive); in the test with MCF7 it was 37.4 µM (inactive). For the same compound, the GI50 in the test on SF-295 is 19.8 µM (inactive); in the test on A549, 44.3 µM (inactive); in the test with SN12C, 33 µM (inactive); in the test on A498, 28.2 µM (inactive); in the test with NCI-H226, 44.3 µM (inactive); with RPMI-8226 it was 30.6 µM (inactive).

Regarding `COC(=O)C(Cc1cn(C(C)n2cc(CC(NC(C)=O)C(=O)OC)c3ccccc32)c2ccccc12)NC(C)=O` (stereo unspecified), the GI50 is 52.5 µM (inactive) in the test with HOP-92; > 100 µM (inactive) in the test with HCC 2998; 42.5 µM (inactive) in the test on CCRF-CEM; 37.6 µM (inactive) in the test on SR; 73.3 µM (inactive) in the test on SK-MEL-5; 0.116 µM (active) in the test with SNB-75. The GI50 was > 100 µM (inactive) with OVCAR-5; > 100 µM (inactive) in the test on SNB-19; > 100 µM (inactive) in the test on PC-3; > 100 µM (inactive) in the test with COLO 205; 60.7 µM (inactive) in the test with SF-295; > 100 µM (inactive) in the test on A549. Also, the figures for the GI50 with SN12C, in the test on A498 and in the test with RPMI-8226 were > 100 µM (inactive), > 100 µM (inactive) and 83.9 µM (inactive), respectively.

As for `COc1cc(/N=C(\N)N=C(N)N)c2ncccc2c1`, the GI50 in the test with HOP-92 was 67 µM (inactive); in the test on ACHN, > 100 µM (inactive); in the test with HCC 2998 it was > 100 µM (inactive); in the test on SK-MEL-5 it was 39.9 µM (inactive); in the test on SNB-75 it was 60.4 µM (inactive); in the test with OVCAR-5, > 100 µM (inactive). The GI50 was > 100 µM (inactive) in the test with LOX IMVI; 50.4 µM (inactive) in the test on SNB-19; > 100 µM (inactive) in the test with PC-3; 74.8 µM (inactive) with COLO 205; > 100 µM (inactive) in the test on MCF7; > 100 µM (inactive) in the test with SF-295. Moreover, the GI50 with A549 is > 100 µM (inactive); in the test with SN12C it was 62.1 µM (inactive); with A498, > 100 µM (inactive); in the test on NCI-H226 it was 18.7 µM (inactive).

In the case of `CNc1cc(Cl)ccc1C(=O)N1CCC[C@H]1CO`, the GI50 with ACHN is > 100 µM (inactive); in the test with CCRF-CEM, > 100 µM (inactive); in the test on SK-MEL-5, 74.1 µM (inactive); in the test with SNB-75, 53.5 µM (inactive); in the test on OVCAR-5, > 100 µM (inactive); in the test with LOX IMVI, > 100 µM (inactive). Also, the GI50 in the test on SNB-19, in the test with PC-3, in the test with COLO 205, in the test with MCF7, in the test with SF-295 and in the test on A549 was > 100 µM (inactive) each time. In addition, the GI50 with SN12C was > 100 µM (inactive); with A498, > 100 µM (inactive); in the test with NCI-H226, 78.2 µM (inactive).

`COc1ccc2c(c1)[n+]([O-])c(C#N)c(N1CCN(c3ccc([N+](=O)[O-])cc3)CC1)[n+]2[O-]`: the GI50 is 2.7 µM (inactive) in the test with ACHN; > 100 µM (inactive) in the test with HCC 2998; 1.92 µM (inactive) with CCRF-CEM; 0.41 µM (active) with SR; 3.59 µM (inactive) with SK-MEL-5; 8.53 µM (inactive) in the test on SNB-75. Further, the GI50 with OVCAR-5 was 7.1 µM (inactive); with LOX IMVI, 2.36 µM (inactive); with SNB-19 it was 5.22 µM (inactive); in the test with PC-3, 3.34 µM (inactive); in the test with COLO 205, 2.24 µM (inactive); with SF-295, 3.77 µM (inactive). Also, the values for the GI50 in the test on A549, in the test with SN12C and with NCI-H226 were 3.08 µM (inactive), 6.37 µM (inactive) and 10.7 µM (inactive), respectively.

With `COC(=O)c1ccccc1NC(=O)C(=O)CC(=O)CC(c1ccccc1)c1c(O)c2ccccc2oc1=O` (stereo unspecified), the GI50 in the test with ACHN, in the test on HCC 2998, in the test on CCRF-CEM, with SR, in the test with SK-MEL-5 and with OVCAR-5 was > 100 µM (inactive) throughout. Also, the GI50 with SNB-19 was > 100 µM (inactive); in the test with COLO 205, > 100 µM (inactive); with SF-295, > 100 µM (inactive); in the test on A549, > 100 µM (inactive); in the test with SN12C, > 100 µM (inactive); in the test on A498, 47.4 µM (inactive). Further, the GI50 in the test with RPMI-8226 was > 100 µM (inactive).

`CCOC(=O)c1c(N2CCCC2)ncn(Cc2ccccc2)c1=S`: the GI50 in the test on HOP-92 is 19.5 µM (inactive); with ACHN, 95.1 µM (inactive); with HCC 2998, > 100 µM (inactive); in the test on CCRF-CEM, > 100 µM (inactive); in the test on SR, > 100 µM (inactive); in the test with SK-MEL-5, 65.3 µM (inactive). In addition, the GI50 was 47.6 µM (inactive) with SNB-75; > 100 µM (inactive) in the test with OVCAR-5; > 100 µM (inactive) in the test on LOX IMVI; > 100 µM (inactive) in the test with SNB-19; 90.4 µM (inactive) in the test with PC-3; > 100 µM (inactive) with COLO 205. The GI50 in the test with SF-295 was > 100 µM (inactive); in the test on A549 it was > 100 µM (inactive); in the test with SN12C it was > 100 µM (inactive); in the test with A498, 49.4 µM (inactive); with NCI-H226 it was > 100 µM (inactive); in the test with RPMI-8226, > 100 µM (inactive).

As to `C/C(CCn1[nH]c(=O)ccc1=O)=N\NC(=O)C(=O)NN`, the GI50 in the test on ACHN, in the test on HCC 2998, in the test on CCRF-CEM, in the test with SK-MEL-5, with OVCAR-5 and with LOX IMVI was > 100 µM (inactive) each time. In addition, the GI50 is > 100 µM (inactive) in the test with SNB-19; > 100 µM (inactive) in the test on COLO 205; > 100 µM (inactive) in the test with SF-295; > 100 µM (inactive) in the test with A549; > 100 µM (inactive) in the test on SN12C; 43.8 µM (inactive) in the test with A498. In addition, the GI50 with NCI-H226 and in the test with RPMI-8226 was > 100 µM (inactive) throughout.
